Measurements reported in the supplement of paper PMC10307832.

Key:
Assay in all cases: relative viability (nuclei count vs DMSO), 5 days (fraction); higher = more cells survive
COR-L23 = tested on: COR-L23
How it was run: (§1)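 Lung cancer cell lines were pin-tool dosed in 1536-well plates on the day after seeding, with either a lone drug or a fixed anchor-drug dose plus five library-drug doses (not always all listed) in √10 steps. Nuclei were counted on 4× images after 5 days. Relative viability is the ratio of treated-well to vehicle-well nuclei counts, with each value a median of duplicate plates.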

EMC-BAC-2 = tested on: EMC-BAC-2
How it was run: as §1

EPLC-272H = tested on: EPLC-272H
How it was run: as §1

H3255 = tested on: H3255
How it was run: as §1

HCC-44 = tested on: HCC-44
How it was run: as §1

HCC-827 = tested on: HCC-827
How it was run: as §1

LCLC-103H = tested on: LCLC-103H
How it was run: as §1

LU99A = tested on: LU99A
How it was run: as §1

NCI-H1395 = tested on: NCI-H1395
How it was run: as §1

NCI-H1563 = tested on: NCI-H1563
How it was run: as §1

NCI-H1651 = tested on: NCI-H1651
How it was run: as §1

NCI-H1793 = tested on: NCI-H1793
How it was run: as §1

NCI-H1944 = tested on: NCI-H1944
How it was run: as §1

NCI-H2023 = tested on: NCI-H2023
How it was run: as §1

NCI-H2085 = tested on: NCI-H2085
How it was run: as §1

NCI-H2087 = tested on: NCI-H2087
How it was run: as §1

NCI-H2405 = tested on: NCI-H2405
How it was run: as §1

NCI-H520 = tested on: NCI-H520
How it was run: as §1

NCI-H650 = tested on: NCI-H650
How it was run: as §1

NCI-H838 = tested on: NCI-H838
How it was run: as §1

SK-MES-1 = tested on: SK-MES-1
How it was run: as §1

COc1nc(C)cnc1NS(=O)(=O)c1cccnc1-c1ccc(-c2nnco2)cc1 [Zibotentan] + Cc1nc(NC(=O)N2CCC[C@H]2C(N)=O)sc1-c1ccnc(C(C)(C)C(F)(F)F)c1 [Alpelisib] (partner 2 µM)
relative viability (COR-L23; first compound 0.08 µM): 0.847
relative viability (COR-L23; first compound 0.253 µM): 0.655
relative viability (COR-L23; first compound 0.8 µM): 0.831
relative viability (COR-L23; first compound 2.53 µM): 0.824
relative viability (EMC-BAC-2; first compound 0.08 µM): 0.78
relative viability (EMC-BAC-2; first compound 0.253 µM): 0.72
relative viability (EMC-BAC-2; first compound 0.8 µM): 0.714
relative viability (EMC-BAC-2; first compound 2.53 µM): 0.782
relative viability (EPLC-272H; first compound 0.08 µM): 0.805
relative viability (EPLC-272H; first compound 0.253 µM): 0.908
relative viability (EPLC-272H; first compound 0.8 µM): 0.979
relative viability (EPLC-272H; first compound 2.53 µM): 0.943
relative viability (H3255; first compound 0.08 µM): 0.712
relative viability (H3255; first compound 0.253 µM): 0.698
relative viability (H3255; first compound 0.8 µM): 0.672
relative viability (H3255; first compound 2.53 µM): 0.727
relative viability (HCC-44; first compound 0.08 µM): 0.932
relative viability (HCC-44; first compound 0.253 µM): 0.768
relative viability (HCC-44; first compound 0.8 µM): 0.842
relative viability (HCC-44; first compound 2.53 µM): 0.842
relative viability (HCC-827; first compound 0.08 µM): 1.01
relative viability (HCC-827; first compound 0.253 µM): 1.07
relative viability (HCC-827; first compound 0.8 µM): 0.808
relative viability (HCC-827; first compound 2.53 µM): 0.975
relative viability (LCLC-103H; first compound 0.08 µM): 0.955
relative viability (LCLC-103H; first compound 0.253 µM): 0.969
relative viability (LCLC-103H; first compound 0.8 µM): 1.01
relative viability (LCLC-103H; first compound 2.53 µM): 1.05
relative viability (LU99A; first compound 0.08 µM): 0.516
relative viability (LU99A; first compound 0.253 µM): 0.58
relative viability (LU99A; first compound 0.8 µM): 0.545
relative viability (LU99A; first compound 2.53 µM): 0.58
relative viability (NCI-H1395; first compound 0.08 µM): 1.28
relative viability (NCI-H1395; first compound 0.253 µM): 0.993
relative viability (NCI-H1395; first compound 0.8 µM): 1.18
relative viability (NCI-H1395; first compound 2.53 µM): 1.42
relative viability (NCI-H1563; first compound 0.08 µM): 0.978
relative viability (NCI-H1563; first compound 0.253 µM): 0.666
relative viability (NCI-H1563; first compound 0.8 µM): 1.01
relative viability (NCI-H1563; first compound 2.53 µM): 1.02
relative viability (NCI-H1651; first compound 0.08 µM): 0.882
relative viability (NCI-H1651; first compound 0.253 µM): 0.88
relative viability (NCI-H1651; first compound 0.8 µM): 0.88
relative viability (NCI-H1651; first compound 2.53 µM): 1.04
relative viability (NCI-H1793; first compound 0.08 µM): 0.821
relative viability (NCI-H1793; first compound 0.253 µM): 0.53
relative viability (NCI-H1793; first compound 0.8 µM): 0.852
relative viability (NCI-H1793; first compound 2.53 µM): 0.713
relative viability (NCI-H1944; first compound 0.08 µM): 0.915
relative viability (NCI-H1944; first compound 0.253 µM): 0.808
relative viability (NCI-H1944; first compound 0.8 µM): 0.756
relative viability (NCI-H1944; first compound 2.53 µM): 0.888
relative viability (NCI-H2023; first compound 0.08 µM): 0.632
relative viability (NCI-H2023; first compound 0.253 µM): 0.485
relative viability (NCI-H2023; first compound 0.8 µM): 0.658
relative viability (NCI-H2023; first compound 2.53 µM): 0.591
relative viability (NCI-H2085; first compound 0.08 µM): 0.93
relative viability (NCI-H2085; first compound 0.253 µM): 0.939
relative viability (NCI-H2085; first compound 0.8 µM): 1.06
relative viability (NCI-H2085; first compound 2.53 µM): 0.932
relative viability (NCI-H2087; first compound 0.08 µM): 1.06
relative viability (NCI-H2087; first compound 0.253 µM): 1.13
relative viability (NCI-H2087; first compound 0.8 µM): 1.03
relative viability (NCI-H2087; first compound 2.53 µM): 1.05
relative viability (NCI-H2405; first compound 0.08 µM): 0.787
relative viability (NCI-H2405; first compound 0.253 µM): 0.65
relative viability (NCI-H2405; first compound 0.8 µM): 0.745
relative viability (NCI-H2405; first compound 2.53 µM): 0.948
relative viability (NCI-H520; first compound 0.08 µM): 0.928
relative viability (NCI-H520; first compound 0.253 µM): 0.848
relative viability (NCI-H520; first compound 0.8 µM): 0.768
relative viability (NCI-H520; first compound 2.53 µM): 0.972
relative viability (NCI-H650; first compound 0.08 µM): 1.13
relative viability (NCI-H650; first compound 0.253 µM): 1.06
relative viability (NCI-H650; first compound 0.8 µM): 1.03
relative viability (NCI-H650; first compound 2.53 µM): 1.16
relative viability (NCI-H838; first compound 0.08 µM): 0.957
relative viability (NCI-H838; first compound 0.253 µM): 1.01
relative viability (NCI-H838; first compound 0.8 µM): 0.956
relative viability (NCI-H838; first compound 2.53 µM): 1.05
relative viability (SK-MES-1; first compound 0.08 µM): 0.947
relative viability (SK-MES-1; first compound 0.253 µM): 0.871
relative viability (SK-MES-1; first compound 0.8 µM): 0.948
relative viability (SK-MES-1; first compound 2.53 µM): 0.989
